Experimental findings from patent US9937235B2, “Lipidated peptides as anti-obesity agents” (USTAV ORGANICKE CHEMIE A BIOCHEMIE AKADEMIE VED CR, V.V.I, priority 2012, dated 2018) are described below.

Where a SMILES comes first, the peptide text is derived from it. [ ]: non-standard residue; d: D form. The star is where a group is joined. Phe(4-NO2) = N[C@@H](Cc1ccc([N+](=O)[O-])cc1)C(=O)O; Phe(3,4-Cl2) = N[C@@H](Cc1ccc(Cl)c(Cl)c1)C(=O)O; 1Nal = N[C@@H](Cc1cccc2ccccc12)C(=O)O; Palmitoyl = CCCCCCCCCCCCCCCC(=O)*; Decanoyl = CCCCCCCCCC(=O)*; Nle = CCCC[C@H](N)C(=O)O; Octanoyl = CCCCCCCC(=O)*

This experiment deals with fasted C57BL/6 mice. Nature of the experiment: Food intake in fasted mice after SC administration. The class given is in vivo, mouse. Particulars: fasted C57BL/6 mice, 5 mg/kg SC, 45 min. As to the method:
Male C57BL/6 mice (An Lab, Prague 4) were bred in the accredited animal facility in the Institute of Organic Chemistry and Biochemistry, Czech Academy of Sciences, Prague, at the Institute of Molecular Genetics, Prague 4, at the temperature of 22±2° C. with access to food and water ad libitum. The day/night cycle was 12/12 hours (light turned on at 6:00 am). Animals were treated according to the Animal Protection Act (Act No. 246/1992). The males were fed standard chow diet St-1 (Mlýn Kocanda, Praha, Czech Republic) which contained 66% saccharides, 25% proteins and 9% lipids with a caloric value of 3.4 kcal/g.
The food was withdrawn 17 hours prior to injection of lipidated peptide and free access to water was maintained. The administration of saline, PrRP or lipidated analogs was performed either by SC injection at doses of 1-10 mg/kg (volume 0.2 ml/mouse), or by ICV using infusion pump (cannulae were inserted into the third brain ventricle 4 days before the experiment following the procedure of Maixnerová et al. (Maixnerová et al., 2011)). The single dose of peptide was 4 nmol/mouse (5 μl/mouse).
Fifteen minutes after the lipidated peptide administration, the mice were given pre-weighed food. The food was then weighed every 30 minutes for 5-10 hours. The administration of every dose was performed at least twice and one group of mice consisted of at least 6 mice. The results were presented as % of food intake as compared with the control group injected with saline.
Statistical evaluation was performed using program Graph-Pad Prism Software (San Diego, Calif., USA), and the one-way ANOVA with a subsequent Dunnettovým post-hoc test. The difference in food intake between mice injected with saline and mice injected with the examined peptide were considered statistically significant at P<0.05.
For `CCCCCCCCCCCCCC(=O)N[C@@H](CO)C(=O)N[C@@H](CCCNC(=N)N)C(=O)N[C@H](C(=O)N[C@@H](Cc1c[nH]cn1)C(=O)N[C@@H](CCCNC(=N)N)C(=O)N[C@@H](Cc1c[nH]cn1)C(=O)N[C@@H](CO)C(=O)N[C@@H](CCSC)C(=O)N[C@@H](CCC(=O)O)C(=O)N[C@H](C(=O)N[C@@H](CCCNC(=N)N)C(=O)N[C@H](C(=O)N1CCC[C@H]1C(=O)N[C@@H](CC(=O)O)C(=O)N[C@H](C(=O)N[C@@H](CC(N)=O)C(=O)N1CCC[C@H]1C(=O)N[C@@H](C)C(=O)N[C@@H](Cc1c[nH]c2ccccc12)C(=O)N[C@@H](Cc1ccc(O)cc1)C(=O)N[C@@H](C)C(=O)N[C@@H](CO)C(=O)N[C@@H](CCCNC(=N)N)C(=O)NCC(=O)N[C@H](C(=O)N[C@@H](CCCNC(=N)N)C(=O)N1CCC[C@H]1C(=O)N[C@H](C(=O)NCC(=O)N[C@@H](CCCNC(=N)N)C(=O)N[C@@H](Cc1ccccc1)C(N)=O)C(C)C)[C@@H](C)CC)[C@@H](C)CC)[C@@H](C)O)[C@@H](C)CC)[C@@H](C)O` [Analog 56], the “Food intake in mice (5 mg/kg SC) % saline-treated group (45 min)” value is recorded as 35%. Under `CCCCCCCCCCCCCCCC(=O)N[C@@H](CO)C(=O)N[C@@H](CCCNC(=N)N)C(=O)N[C@@H](C)C(=O)N[C@@H](Cc1c[nH]cn1)C(=O)N[C@@H](CCC(N)=O)C(=O)N[C@@H](Cc1c[nH]cn1)C(=O)N[C@@H](CO)C(=O)N[C@@H](CCCC)C(=O)N[C@@H](CCC(=O)O)C(=O)N[C@H](C(=O)N[C@@H](CCCNC(=N)N)C(=O)N[C@H](C(=O)N1CCC[C@H]1C(=O)N[C@@H](CC(=O)O)C(=O)N[C@H](C(=O)N[C@@H](CC(N)=O)C(=O)N1CCC[C@H]1C(=O)N[C@@H](C)C(=O)N[C@@H](Cc1c[nH]c2ccccc12)C(=O)N[C@@H](Cc1ccc(O)cc1)C(=O)N[C@H](C(=O)NCC(=O)N[C@@H](CCCNC(=N)N)C(=O)NCC(=O)N[C@H](C(=O)N[C@@H](CCCNC(=N)N)C(=O)N1CCC[C@H]1C(=O)N[C@H](C(=O)NCC(=O)N[C@@H](CCCNC(=N)N)C(=O)N[C@@H](Cc1ccc(O)cc1)C(N)=O)C(C)C)[C@@H](C)CC)[C@@H](C)O)[C@@H](C)CC)[C@@H](C)O)[C@@H](C)O` [Analog 35] (Palmitoyl-SRAHQHS[Nle]ETRTPDINPAWYTGRGIRPVGRY-NH2) stands 22%. Under `CCCCCCCCCCCCCCCC(=O)N[C@@H](CO)C(=O)N[C@@H](CCCNC(=N)N)C(=O)N[C@@H](C)C(=O)N[C@@H](Cc1c[nH]cn1)C(=O)N[C@@H](CCC(N)=O)C(=O)N[C@@H](Cc1c[nH]cn1)C(=O)N[C@@H](CO)C(=O)N[C@@H](CCCC)C(=O)N[C@@H](CCC(=O)O)C(=O)N[C@H](C(=O)N[C@@H](CCCNC(=N)N)C(=O)N[C@H](C(=O)N1CCC[C@H]1C(=O)N[C@@H](CC(=O)O)C(=O)N[C@H](C(=O)N[C@@H](CC(N)=O)C(=O)N1CCC[C@H]1C(=O)N[C@@H](C)C(=O)N[C@@H](Cc1c[nH]c2ccccc12)C(=O)N[C@@H](Cc1ccc(O)cc1)C(=O)N[C@H](C(=O)NCC(=O)N[C@@H](CCCNC(=N)N)C(=O)NCC(=O)N[C@H](C(=O)N[C@@H](CCCNC(=N)N)C(=O)N1CCC[C@H]1C(=O)N[C@H](C(=O)NCC(=O)N[C@@H](CCCNC(=N)N)C(=O)N[C@@H](Cc1cccc2ccccc12)C(N)=O)C(C)C)[C@@H](C)CC)[C@@H](C)O)[C@@H](C)CC)[C@@H](C)O)[C@@H](C)O` [Analog 23] (Palmitoyl-SRAHQHS[Nle]ETRTPDINPAWYTGRGIRPVGR[1Nal]-NH2) stands 13%; under `CCCCCCCC(=O)N[C@H](C(=O)N1CCC[C@H]1C(=O)N[C@@H](CC(=O)O)C(=O)N[C@H](C(=O)N[C@@H](CC(N)=O)C(=O)N1CCC[C@H]1C(=O)N[C@@H](C)C(=O)N[C@@H](Cc1c[nH]c2ccccc12)C(=O)N[C@@H](Cc1ccc(O)cc1)C(=O)N[C@@H](C)C(=O)N[C@@H](CO)C(=O)N[C@@H](CCCNC(=N)N)C(=O)NCC(=O)N[C@H](C(=O)N[C@@H](CCCNC(=N)N)C(=O)N1CCC[C@H]1C(=O)N[C@H](C(=O)NCC(=O)N[C@@H](CCCNC(=N)N)C(=O)N[C@@H](Cc1ccccc1)C(N)=O)C(C)C)[C@@H](C)CC)[C@@H](C)CC)[C@@H](C)O` [Analog 52] (Octanoyl-TPDINPAWYASRGIRPVGRF-NH2), 100%. For `CCCCCCCCCCCCCCCC(=O)N[C@@H](CO)C(=O)N[C@@H](CCCNC(=N)N)C(=O)N[C@@H](C)C(=O)N[C@@H](Cc1c[nH]cn1)C(=O)N[C@@H](CCC(N)=O)C(=O)N[C@@H](Cc1c[nH]cn1)C(=O)N[C@@H](CO)C(=O)N[C@@H](CCCC)C(=O)N[C@@H](CCC(=O)O)C(=O)N[C@H](C(=O)N[C@@H](CCCNC(=N)N)C(=O)N[C@H](C(=O)N1CCC[C@H]1C(=O)N[C@@H](CC(=O)O)C(=O)N[C@H](C(=O)N[C@@H](CC(N)=O)C(=O)N1CCC[C@H]1C(=O)N[C@@H](C)C(=O)N[C@@H](Cc1c[nH]c2ccccc12)C(=O)N[C@@H](Cc1ccc(O)cc1)C(=O)N[C@H](C(=O)NCC(=O)N[C@@H](CCCNC(=N)N)C(=O)NCC(=O)N[C@H](C(=O)N[C@@H](CCCNC(=N)N)C(=O)N1CCC[C@H]1C(=O)N[C@H](C(=O)NCC(=O)N[C@@H](CCCNC(=N)N)C(=O)N[C@@H](Cc1ccc(Cl)c(Cl)c1)C(N)=O)C(C)C)[C@@H](C)CC)[C@@H](C)O)[C@@H](C)CC)[C@@H](C)O)[C@@H](C)O` [Analog 26] (Palmitoyl-SRAHQHS[Nle]ETRTPDINPAWYTGRGIRPVGR[Phe(3,4-Cl2)]-NH2), the “Food intake in mice (5 mg/kg SC) % saline-treated group (45 min)” value came out at 5%. Under `CCCCCCCCCCCCCCCC(=O)N[C@@H](CO)C(=O)N[C@@H](CCCNC(=N)N)C(=O)N[C@@H](C)C(=O)N[C@@H](Cc1c[nH]cn1)C(=O)N[C@@H](CCC(N)=O)C(=O)N[C@@H](Cc1c[nH]cn1)C(=O)N[C@@H](CO)C(=O)N[C@@H](CCCC)C(=O)N[C@@H](CCC(=O)O)C(=O)N[C@H](C(=O)N[C@@H](CCCNC(=N)N)C(=O)N[C@H](C(=O)N1CCC[C@H]1C(=O)N[C@@H](CC(=O)O)C(=O)N[C@H](C(=O)N[C@@H](CC(N)=O)C(=O)N1CCC[C@H]1C(=O)N[C@@H](C)C(=O)N[C@@H](Cc1c[nH]c2ccccc12)C(=O)N[C@@H](Cc1ccc(O)cc1)C(=O)N[C@H](C(=O)NCC(=O)N[C@@H](CCCNC(=N)N)C(=O)NCC(=O)N[C@H](C(=O)N[C@@H](CCCNC(=N)N)C(=O)N1CCC[C@H]1C(=O)N[C@H](C(=O)NCC(=O)N[C@@H](CCCNC(=N)N)C(=O)N[C@@H](Cc1ccc([N+](=O)[O-])cc1)C(N)=O)C(C)C)[C@@H](C)CC)[C@@H](C)O)[C@@H](C)CC)[C@@H](C)O)[C@@H](C)O` [Analog 29] (Palmitoyl-SRAHQHS[Nle]ETRTPDINPAWYTGRGIRPVGR[Phe(4-NO2)]-NH2) stands 0.7%. As for `CCCCCCCCCC(=O)N[C@@H](CO)C(=O)N[C@@H](CCCNC(=N)N)C(=O)N[C@@H](C)C(=O)N[C@@H](Cc1c[nH]cn1)C(=O)N[C@@H](CCC(N)=O)C(=O)N[C@@H](Cc1c[nH]cn1)C(=O)N[C@@H](CO)C(=O)N[C@@H](CCCC)C(=O)N[C@@H](CCC(=O)O)C(=O)N[C@H](C(=O)N[C@@H](CCCNC(=N)N)C(=O)N[C@H](C(=O)N1CCC[C@H]1C(=O)N[C@@H](CC(=O)O)C(=O)N[C@H](C(=O)N[C@@H](CC(N)=O)C(=O)N1CCC[C@H]1C(=O)N[C@@H](C)C(=O)N[C@@H](Cc1c[nH]c2ccccc12)C(=O)N[C@@H](Cc1ccc(O)cc1)C(=O)N[C@H](C(=O)NCC(=O)N[C@@H](CCCNC(=N)N)C(=O)NCC(=O)N[C@H](C(=O)N[C@@H](CCCNC(=N)N)C(=O)N1CCC[C@H]1C(=O)N[C@H](C(=O)NCC(=O)N[C@@H](CCCNC(=N)N)C(=O)N[C@@H](Cc1ccccc1)C(N)=O)C(C)C)[C@@H](C)CC)[C@@H](C)O)[C@@H](C)CC)[C@@H](C)O)[C@@H](C)O` [Analog 16] (Decanoyl-SRAHQHS[Nle]ETRTPDINPAWYTGRGIRPVGRF-NH2), the figure is 57%; as for `CC[C@H](C)[C@H](NC(=O)CNC(=O)[C@H](CCCNC(=N)N)NC(=O)[C@H](CO)NC(=O)[C@H](C)NC(=O)[C@H](Cc1ccc(O)cc1)NC(=O)[C@H](Cc1c[nH]c2ccccc12)NC(=O)[C@H](C)NC(=O)[C@@H]1CCCN1C(=O)[C@H](CC(N)=O)NC(=O)[C@@H](NC(=O)[C@H](CC(=O)O)NC(=O)[C@@H]1CCCN1C(=O)[C@@H](NC(=O)[C@H](CCCNC(=N)N)NC(=O)[C@@H](NC(=O)[C@H](CCC(=O)O)NC(=O)[C@H](CCSC)NC(=O)[C@H](CO)NC(=O)[C@H](Cc1c[nH]cn1)NC(=O)[C@H](CCCNC(=N)N)NC(=O)[C@H](Cc1c[nH]cn1)NC(=O)[C@@H](NC(=O)[C@H](CCCNC(=N)N)NC(=O)[C@@H](N)CO)[C@@H](C)O)[C@@H](C)CC)[C@@H](C)O)[C@@H](C)CC)C(=O)N[C@@H](CCCNC(=N)N)C(=O)N1CCC[C@H]1C(=O)N[C@H](C(=O)NCC(=O)N[C@@H](CCCNC(=N)N)C(=O)N[C@@H](Cc1ccccc1)C(N)=O)C(C)C` [Analog 50], 100%.
